Assay [1] deals with CAR T cells. The following applies: in vitro expansion; inhibitor washed out before adoptive transfer; cited from earlier work.
The test system of assay [2] is CD19+ cancer cells. As to the kind of experiment: CAR T cell killing of tumour cells in 24-hour co-culture (flow cytometry). The following applies: high dose only, CAR T to cancer cell ratio 1:1. Type of assay: cell-based, human. The source says:
Raji immortalized human B cell line CD19-expressing cancer cells (available from the American Type Culture Collection) are acquired and stable transfection of the Raji cell line is generated with an mCherry reporter protein to facilitate identification of the cancer cells within co-cultures by detection of the mCherry protein fluorescence by flow cytometry.
(§1) UR-13870, Ralimetinib or Acumapimod are each added to a culture of CD19+ cancer cells (using a micropipette to transfer the correct volume to achieve the desired final concentration in Table 2).
(§2) CAR T cells are then added to the same culture 5-10 minutes later. In brief, CAR T cell concentrations per ml are determined and used to aliquot the desired number of CAR T cells into the culture to achieve the described 1:1 CAR T to cancer cell ratio.
(§3) The co-culture containing CAR T cells and tumour cells is swirled gently to ensure homogenous dispersion of cells throughout the vessel. The resultant co-culture is incubated for 24 to 96 hours in a closed incubator at 37° C. with 5% CO2 and a suitably humid atmosphere.
Tumour cell death is observed by examining relative CAR T cell:tumour cell numbers by flow cytometry following 24 hour co-culture, as shown in FIG. 7.
For orientation: A flow cytometer gives signals particle by particle.

The subject of assay [3] is CAR T cells. As to the kind of experiment: T cell exhaustion markers TIM3 and LAG3 on CAR T cells in co-culture (flow cytometry). Type of assay: cell-based, human. The settings on record: CAR T:tumour cell co-culture, concentrations of Table 2; for number of LAG3+ CAR T cells: Ralimetinib 5 μM results to be disregarded. The protocol: as §1, §2, §3
Both T cell surface markers T cell immunoglobulin and mucin domain-containing protein 3 (TIM3/CD366) and Lymphocyte Activation Gene 3 (LAG3/CD223) are associated with T cell exhaustion and disease progression during immunotherapy treatment. Advantageously, all of UR-13870, Ralimetinib and Acumapimod reduce both the number of TIM3+ CAR T cells, and the number of LAG3+ CAR T cells. […] For LAG3+, the results for Ralimetinib at a 5 μM concentration appear to have been affected by experimental failure, and these may be disregarded accordingly.

Assay [4] has as its system HUVEC endothelial cells. As to the kind of experiment: IL-6 and IL-8 ELISA of HUVEC cells treated with sCART-mono supernatant. Format: cell-based, human. The following applies: 24 hr, concentrations of Table 2. The protocol:
(§4) With reference to FIG. 13 of the accompanying drawings, a co-culture (100) is established using a standard cell culture transwell dish, including a first compartment (101), containing CAR T cells and cancer cells (at a 1:1 ratio), which is separated from a second compartment (102), containing monocytes, by a semi-permeable membrane (103) composed of tissue-culture treated polyethylene terephthalate with a 0.4 μm pore size.
(§5) Each of UR-13870, Acumapimod and Ralimetinib are administered to the co-culture following a procedure analogous to that described in Example 2 above (at the concentrations as shown in Table 2 above).
(§6) The co-culture is incubated at 37° C., 5% CO2 and a suitably humid environment for 24 hours. On completion, the transwell insert is removed and supernatant is isolated. Cells and debris are removed from the supernatant by exposing the container to a centripetal force of 400 G and gently pipetting the supernatant into a new container without disturbing the cell pellet at the bottom of the previous container.
(§7) Prior to adding the p38 inhibitors and sCART-mono, endothelial cells are incubated overnight at 37° C. and 5% CO2 in a suitably humid environment to allow the cells to adhere fully to the tissue culture dish.
Supernatant levels of IL-6 and IL-8 are determined following 24 hr treatment with sCART-mono and the p38 MAPK inhibitors by ELISA.

In assay [5] the test system is CAR T cells. Nature of the assay: CAR T cell proliferation in CAR T cell:cancer cell co-culture (Cell Trace Violet, flow cytometry). Format: cell-based, human. The settings on record: CAR T:tumour cell co-culture 1:1; concentrations of Table 2. The protocol: CAR T cell proliferation is confirmed by Cell Trace™ Violet staining of CAR T cells (staining agent having been added prior to addition of the T cells to the co-cultures with tumour cells). Staining may be observed, following co-culture, via flow cytometry.
as §1, §2, §3

Assay [6] has as its system THP-1 monocytes. Nature of the assay: IL-6 ELISA of THP-1 monocytes treated with sCAR. The settings on record: sCAR stimulation, 24 hours; concentrations of Table 2. Format: cell-based, human. How it is done: In Example 3 below, sCAR (or smCAR) is added using a micropipette to an in vitro culture of monocyte cells of the human monocytic cell line THP-1, available from the American Type Culture Collection. The culture is incubated in a closed incubator at 37° C. with 5% CO2 and a suitably humid atmosphere for approximately 24 hours, following which cytokine release is observed. p38 MAPK activation and cytokine release are confirmed by evaluation of the presence of IL-6 in THP-1 cells using an enzyme-linked immunosorbent assay (ELISA; for which a kit is suitably obtainable from Thermo Fisher Scientific of Kingfisher Dr, Swindon SN3 5BZ, UK).
(i) Monocytes sCAR (or smCAR), produced as described in Example 1 above, is added to a monoculture of THP-1 monocytes in the presence of UR-13870, Ralimetinib or Acumapimod at each of the concentrations shown in Table 2 above at 37° C., 5% CO2 and a suitably humid environment for 24 hours.
Supernatant levels of IL-6 from the THP-1 monocyte monoculture with sCAR (or smCAR) are determined by ELISA.
In general terms: In an ELISA, binding on a coated surface is turned into a signal by an enzyme label.

The test system of assay [7] is HUVEC endothelial cells. As to the kind of experiment: QPCR of ICAM1 in HUVEC cells treated with sCART-mono supernatant. The following applies: 24 hours. Type of assay: cell-based, human. The protocol: as §4, §5, §6, §7
Reduced endothelial cell activation is evidenced by reduced ICAM1 expression in response to treatment with UR-13870, Acumapimod and Ralimetinib.

Assay [8] concerns HUVEC endothelial cells. As to the kind of experiment: IL-6 and IL-8 ELISA of HUVEC endothelial cells treated with sCAR. Format: cell-based, human. The following applies: sCAR stimulation, 24 hours; concentrations of Table 2. How it is done:
(§8) In like manner and also in Example 3 below, sCAR (or smCAR) is added to endothelial (HUVEC) cells, available from the American Type Culture Collection, and using an equivalent protocol to the treatment of THP-1 cells (but with individually optimised conditions, such as the concentration of sCAR used), following which IL-6 release and IL-8 release are observed. Pro-inflammatory cytokines IL-6 and IL-8 are measured using an enzyme-linked immunosorbent assay (ELISA) and IL-6, ICAM1 and VCAM1 are measured by quantitative PCR (QPCR, for which a kit is suitably obtainable from Thermo Fisher Scientific of Kingfisher Dr, Swindon SN3 5BZ, UK).
(§9) sCAR (or smCAR), produced as described in Example 1 above, is added to a monoculture of HUVEC endothelial cells in the presence of UR-13870, Ralimetinib or Acumapimod at each of the concentrations shown in Table 2 above, at 37° C., 5% CO2 and a suitably humid environment for 24 hours.
Supernatant levels of IL-6 and IL-8 from the HUVEC endothelial cell monoculture with sCAR (or smCAR) are determined by ELISA.

In assay [9] the test system is CAR T cells. As to the kind of experiment: TNFα immunosorbent assay of CAR T:tumour cell co-culture supernatant. Format: cell-based, human. How it is done:
as §1, §2, §3
Cytokine release by T cells is also quantified by TNFα enzyme-based immunosorbent assays of co-culture supernatant, as shown in FIG. 9. Ralimetinib and Acumapimod reduced TNF-α secretion following treatment. Data for UR-13870 were discarded due to failures in the UR-13870 experimental procedure.

In assay [10] the test system is HUVEC endothelial cells. As to the kind of experiment: QPCR of VCAM1, ICAM1 and IL-6 in HUVEC cells treated with sCAR. Format: cell-based, human. The settings on record: 24 hours. The protocol:
as §8, §9

On to `Cc1ccc(-n2nc(C(C)(C)C)cc2NC(=O)Nc2ccc(OCCN3CCOCC3)c3ccccc23)cc1` [Doramapimod/BIRB796], for which, in [1], the “CAR T cell phenotypes” value is “promote desirable CAR T cell phenotypes in vitro”.
In the case of `CC(C)(C)Cn1c(N)nc2ccc(-c3[nH]c(C(C)(C)C)nc3-c3ccc(F)cc3)nc21` [Ralimetinib, 5-[2-tert-Butyl-4-(4-fluorophenyl)-1H-imidazol-5-yl]-3-(2,2-dimethylpropyl)imidazo[4,5-b]pyridin-2-amine], the “CAR T cell-induced cancer cell death (percentage of residual tumour cells in the co-culture)” value in assay [2] is listed as “maintain CAR T cell-induced cancer cell death”. Moreover, in assay [3], the “number of TIM3+ CAR T cells” value is “reduce” and the “number of LAG3+ CAR T cells” value was “reduce”. Besides, in assay [4], the “IL-6 levels in supernatant” value is “reduced” and the “IL-8 levels in supernatant” value is reported as “(albeit non-significant) downward trend”. Further, the “CAR T cell proliferation (Cell Trace Violet staining)” value in assay [5] is recorded as “maintain CAR T cell proliferation”. Moreover, the “IL-6 secretion by THP-1 monocytes” value in [6] is “significantly reduce”. Further, in [7], the “ICAM1 expression (endothelial cell activation)” value is reported as “reduced”. Moreover, in assay [8], the “IL-6 secretion by HUVEC cells” value is on record as “significantly reduce” and the “IL-8 supernatant level, HUVEC cells” value is “reduced”. The “TNF-α secretion (co-culture supernatant)” value in assay [9] is “reduced”. In addition, in assay [10], the “ICAM1 mRNA levels” value is recorded as “significantly reduce”; the “IL-6 mRNA levels” value is on record as “significantly reduce”; the “VCAM1 mRNA levels” value is reported as “reduced, albeit non-significantly”.
For `Cc1ccc(C(=O)NC2CC2)cc1-n1ncc(C(=O)c2cccc(C#N)c2)c1N` [Acumapimod, 3-[5-amino-4-(3-cyanobenzoyl)pyrazol-1-yl]-N-cyclopropyl-4-methylbenzamide], the “CAR T cell-induced cancer cell death (percentage of residual tumour cells in the co-culture)” value in assay [2] is reported as “maintain CAR T cell-induced cancer cell death”. Moreover, in [3], the “number of TIM3+ CAR T cells” value is recorded as “reduce” and the “number of LAG3+ CAR T cells” value is given as “reduce”. In addition, in assay [4], the “IL-6 levels in supernatant” value is on record as “reduced” and the “IL-8 levels in supernatant” value is listed as “(albeit non-significant) downward trend”. The “CAR T cell proliferation (Cell Trace Violet staining)” value in assay [5] is on record as “maintain CAR T cell proliferation”. Also, the “IL-6 secretion by THP-1 monocytes” value in assay [6] is reported as “significantly reduce”. In addition, the “ICAM1 expression (endothelial cell activation)” value in assay [7] was “reduced”. For the same compound, in assay [8], the “IL-6 secretion by HUVEC cells” value was “significantly reduce” and the “IL-8 supernatant level, HUVEC cells” value is reported as “reduced”. In [9], the “TNF-α secretion (co-culture supernatant)” value is “reduced”. In assay [10], the “ICAM1 mRNA levels” value is given as “significantly reduce”; the “IL-6 mRNA levels” value is listed as “significantly reduce”; the “VCAM1 mRNA levels” value is on record as “reduced, albeit non-significantly”.

The values above are taken from patent US20260115177A1, “MEDICINAL PRODUCTS AND METHODS FOR THE ALLEVIATION OF CANCER IMMUNOTHERA-PY-ASSOCIATED CYTOKINE RELEASE SYNDROME” (POOLBEG PHARMA (UK) LIMITED, priority 2023, published 2026).
